Experiments:
Format in all cases: cell-based, recombinant influenza virus in WSN background
[1] = system: compound 3061-resistant rWSN virus (Y52H mutation at NP)
[2] = system: Y52H/Y289H double mutation rWSN virus; settings: read-out: Anti-rWSN IC50 (μM), NP Y52H/Y289H
[3] = system: nucleozin-resistant rWSN virus (Y289H mutation at NP)

O=C(NCCCN1CCOCC1)c1csc(Nc2ccc(Cl)c(Cl)c2)n1 [compound 1]
inhibition of 3061-resistant strain [1]: capable of inhibiting | IC50 ([1]; read-out: Anti-rWSN IC50 (μM), NP Y52H): 3.2 µM | IC50 [2]: 1.8 µM | inhibition of nucleozin-resistant strain [3]: capable of inhibiting | IC50 ([3]; read-out: Anti-rWSN IC50 (μM), NP Y289H): 4 µM

Reference: patent US20130040952A1 (priority 2011, published 2013)
